Patent US20110165277A1, “Biological Materials and Uses Thereof” (priority 2008, published 2011)
Where “and” joins values, the source holds several entries; their conditions need not be identical. Equal entries are not always repeated.

Tests used:
[1] = Further sandalwood analogues: CH4 per bottle, compound in DMSO or ETOH (Example 7, Table 15); type: cell-based; conditions: for CH4: single bottles rep a, b, c, listed as Javanol batch no. 9000699712
Experimental: (§1) Further testing of sandalwood analogues was conducted following the protocols described in Examples 3 and 5.

rumen fluid = experiment: Methane production by buffered rumen fluid, sandalwood oil and synthetic replacements (Example 4); type: cell-based, cow; conditions: 5, 50 or 100 or 500 pg/ml; 16 hours
Experimental: Thirty ml of a 33% buffered solution of rumen fluid withdrawn from a rumen canulated cow was incubated with 0.3 g of a 50:50 hay barley mix at 39° C. under anaerobic conditions
After 16 hours the volume of gas produced and the percentage of methane in the headspace was measured and the resultant fermentation fluid was analysed for volatile fatty acids by HPLC.
Sandalwood oil from either Fluka or SAFC and two different batches of Javanol (Givaudan) or a single batch of Santaliff (International Flavors & Fragrances) (both Javanol and Santaliff are artifical Sandalwood replacements) were added in the amount of 5, 50 or 100 or 500 pg/ml to the 30 ml buffered solution of rumen fluid prior to incubation.

[2] = Further sandalwood analogues: volatile fatty acid and methane production (Example 7, Table 14); type: cell-based
Experimental: as §1

Listeria monocytogenes = experiment: Listeria survival in Rusitec (Example 5); type: cell-based; conditions: 100 μg/ml; 24h after pathogen addition
Experimental: Volatile fatty acids, methane and bacterial numbers were measured on days 18 and 19 of the experiment. On day 19, Listeria inocula was added and it numbers traced over the last 24 hr of the experiment.

[3] = system: rumen contents in Rusitec; experiment: Rusitec with Sandalwood oil and Javanol (Example 5); type: cell-based, cattle; conditions: 100 μg/ml
Experimental: The rumen-simulation technique (Rusitec) was used as described by Czerkawski and Breckenridge (1977). The nominal volume in each reaction vessel was 850 ml and the dilution rate was set at 0.88 per day, the infused liquid being artificial saliva (McDougall, Biochem J 1948 43, 99-109) at pH 8.4. Inocula for the fermentation vessels were obtained from a pooled sample (liquid and particulate rumen contents) from three rumen-cannulated cattle fed on a conserved diet. On the first day of the experiment 300 ml of strained rumen fluid, 300 ml of water and 300 ml of artificial saliva were placed in each reaction vessel. Solid rumen contents (80 g) were weighed into a nylon bag and one of these was placed inside the food container in each vessel together with a bag (20 g/d) of a basal diet of grass hay, barley, molasses, soyabean meal and a vitamin and mineral mixture. The food was provided in nylon bags, pore size 50 μm, which were gently agitated in the liquid phase. Two bags were present at any time and one bag was replaced each day to give a 48 h incubation. The bags that were removed from the vessels were placed in plastic bags, and their contents washed and squeezed with 40 ml of artificial saliva. This was done twice for each bag, and the combined washings were poured back into the reaction vessels. Fermentation vessels were flushed with anaerobic grade CO2 before filling, after filling, and then every day during feeding (when the nylon bags with the food were changed). The duration of the experiment was 19 days, during which four vessels received Sandalwood oil (added the basal diet to reach an initial concentration of 100 μg/ml) four vessels received Javanol (added the basal diet to reach an initial concentration of 100 μg/ml) the remaining vessels were controls. Volatile fatty acids, methane and bacterial numbers were measured on days 18 and 19 of the experiment. On day 19, Listeria inocula was added and it numbers traced over the last 24 hr of the experiment.

Structure (SMILES): CC1(CO)CC1CC1CC2CC2(C)C1(C)C (stereo not shown) [Javanol, (1-Methyl-2-(1,2,2-trimethylbicyclo[3.1.0]hex-3-ylmethyl)cyclopropyl)methanol]
- CH4 (mean of rep a-c) ([1]; 150 ug/30 ml in 200 ul DMSO): 913.6635 µmol/g
- CH4 ([1]; 150 ug/30 ml in 200 ul DMSO): 956.9591 µmol/g and 888.4071 µmol/g and 895.6242 µmol/g
- CH4 (mean of rep a-c) ([1]; 150 ug/30 ml in 200 ul ETOH): 1373.522 µmol/g
- CH4 ([1]; 150 ug/30 ml in 200 ul ETOH): 1403.051 µmol/g and 1381.609 µmol/g and 1335.905 µmol/g
- CH4 (mean of rep a-c) ([1]; 15000 ug/30 ml in 200 ul DMSO): 605.2838 µmol/g
- CH4 ([1]; 15000 ug/30 ml in 200 ul DMSO): 647.283 µmol/g and 563.0216 µmol/g and 605.5467 µmol/g
- CH4 (mean of rep a-c) ([1]; 15000 ug/30 ml in 200 ul ETOH): 1158.255 µmol/g
- CH4 ([1]; 15000 ug/30 ml in 200 ul ETOH): 1145.346 µmol/g and 1230.103 µmol/g and 1099.314 µmol/g
- methane compared to the control experiments (rumen fluid): significantly decreased
- Acetate ([2]; 5 μg/ml): 2401 μmol/g of feed added
- Butyrate ([2]; 5 μg/ml): 538 μmol/g of feed added
- Methane ([2]; 5 μg/ml): 978 μmol/g of feed added
- Propionate ([2]; 5 μg/ml): 493 μmol/g of feed added
- TVFA ([2]; 5 μg/ml): 3432 μmol/g of feed added
- Acetate ([2]; 50 μg/ml): 2622 μmol/g of feed added
- Butyrate ([2]; 50 μg/ml): 593 μmol/g of feed added
- Methane ([2]; 50 μg/ml): 904 μmol/g of feed added
- Propionate ([2]; 50 μg/ml): 524 μmol/g of feed added
- TVFA ([2]; 50 μg/ml): 3739 μmol/g of feed added
- Acetate ([2]; 100 μg/ml): 2504 μmol/g of feed added
- Butyrate ([2]; 100 μg/ml): 499 μmol/g of feed added
- Methane ([2]; 100 μg/ml): 859 μmol/g of feed added
- Propionate ([2]; 100 μg/ml): 542 μmol/g of feed added
- TVFA ([2]; 100 μg/ml): 3545 μmol/g of feed added
- Acetate ([2]; 500 μg/ml): 2045 μmol/g of feed added
- Butyrate ([2]; 500 μg/ml): 229 μmol/g of feed added
- Methane ([2]; 500 μg/ml): 744 μmol/g of feed added
- Propionate ([2]; 500 μg/ml): 833 μmol/g of feed added
- TVFA ([2]; 500 μg/ml): 3107 μmol/g of feed added
- Listeria monocytogenes survival (Listeria monocytogenes): not
- 48 h DM degradation (%) [3]: 33.6%
- Acetate [3]: 23.9 mmol/day
- Bacteria counts Cellulolytic [3]: 1.9e+06 mL⁻¹
- Bacteria counts Total [3]: 4.9e+09 mL⁻¹
- Butyrate [3]: 4.4 mmol/day
- Methane production [3]: decreased
- Propionate [3]: 16.7 mmol/day
- Total VFA [3]: 45.0 mmol/day
- VFA production [3]: no effect
- CH4 ([3]; days 18 and 19): 2.51 mmol/day
